Results on 3 compounds are retold here after article PMC3609026 (Cancer, 2011).

Each structure is given as a SMILES string. Read-outs that look alike come from different tables or passages of the source.

The format of data set [1] is in vivo, human. The following applies: through cycles 1 and 2, combination treatment.
For data set [2], the system named is advanced non-clear cell RCC. To be noted: single agent, 23 patients with advanced non-clear cell RCC; cited from earlier work.
A short description of data set [3]: Pharmacokinetics: everolimus blood levels, LC/MS, noncompartmental analysis. The following applies: through cycles 1 and 2, combination treatment. It is filed as in vivo, human.

As to `CCNCCNC(=O)c1c(C)[nH]c(/C=C2\C(=O)Nc3ccc(F)cc32)c1C` [N-desethyl sunitinib], in data set [1], the accumulation entry is “No unexpected accumulation”.

Take `CCN(CC)CCNC(=O)c1c(C)[nH]c(/C=C2\C(=O)Nc3ccc(F)cc32)c1C` [sunitinib]: in data set [2], the “median PFS” value is listed as 5.5 months and the responses entry was “no responses”. `CO[C@H]1C[C@@H]2CC[C@@H](C)[C@@](O)(O2)C(=O)C(=O)N2CCCC[C@H]2C(=O)O[C@H]([C@H](C)C[C@@H]2CC[C@@H](OCCO)[C@H](OC)C2)CC(=O)[C@H](C)/C=C(\C)[C@@H](O)[C@@H](OC)C(=O)[C@H](C)C[C@H](C)/C=C/C=C/C=C/1C` [everolimus]: in data set [3], the accumulation entry is given as “No unexpected accumulation”.
